According to publication PMC4157337 (Peptides, 2013):

Columns and labels:
neurolysin = conditions: cited from earlier work
[1] = system: Ang-(1-7) peptidase (CSF); assay: Inhibitor profile: [125I]-Ang-; format: biochemical, sheep; conditions: text to Figure 1D-F; pooled CSF
[2] = biological target: TOP (thimet oligopeptidase); conditions: cited from earlier work
[3] = system: Ang-(1-7) peptidase (CSF); assay: Competition of peptides for conversion of [125I]-Ang-; conditions: pooled CSF, inhibitor cocktail, 120 min, 37°C; Figure 4
[4] = cited from earlier work
neprilysin = conditions: no reference given; quoted as known selective inhibitor; cited from earlier work
[5] = system: Ang-(1-7) peptidase (CSF); conditions: sheep CSF, earlier study; cited from earlier work
[6] = system: Ang-(1-7) peptidase (CSF); assay: pH profile of [125I]-Ang-; format: biochemical, sheep; conditions: pH 5 to 8.5; N = 3
[7] = system: Ang-(1-7) peptidase (CSF); assay: Peptidase kinetics; format: biochemical; conditions: sheep CSF, control and BMX; product [125I]-Ang-(1-4)

In the case of “1-carboxy-3-phenyl-propyl (Ala-Ala-Phe-4-Abz-OH [CFP]”, the Ki (neurolysin) is given as 4 µM, the “attenuation of metabolism of Ang-(1-7) to Ang-(1-4), in words” value (“attenuation” for short) [1] is given as “failed to attenuate” and the Ki [2] is given as 0.18 µM.
In the case of neurotensin, the “extent of inhibition of enzyme activity over the concentration range” value [3] is reported as 15% and the “extent of inhibition of enzyme activity, in words” value [3] is reported as “poor competitor”.
In the case of `C[C@H]1C[C@H]2[C@@H]3CCC4=CC(=O)C=C[C@]4(C)[C@@]3(F)[C@@H](O)C[C@]2(C)[C@@]1(O)C(=O)CO` [betamethasone], the “ACE2 activity in renal cortex, isolated tubules and urine, in words” value ([4]; BMX sheep) is listed as “lower”, the “ACE2 activity in the circulation, in words” value ([4]; adult BMX offspring) is listed as “decreased” and the “soluble ACE activity in the circulation, in words” value ([4]; adult BMX offspring) is listed as “increased”. The “MAP, in words” value ([4]; antenatal exposure, by 6 months of age) was “elevated MAP” and the “baroreflex sensitivity (BRS), in words” value ([4]; antenatal exposure, by 6 weeks) was “decreased BRS”.
For `O=C(O)C(O)CNC(=O)[C@H](Cc1ccccc1)NC(CCc1ccccc1)C(=O)O` (stereo partly drawn) [SCH39370], the Ki (neprilysin) is listed as 0.011 µM and the “attenuation” value [1] is listed as “failed to attenuate”.
In the case of `O=C(O)c1cc[c]([Hg][Cl])cc1` [PCMB, p-chloromercuribenzoic acid], the “conversion of Ang-(1-7) to Ang-(1-4) in CSF, in words” value [5] is listed as “abolished”.
In the case of Pro-Ile, the Ki (neurolysin) is given as 90 µM, the “sensitivity of neurolysin forms to inhibition, in words” value (neurolysin; cytosolic and mitochondrial forms) is given as “sensitive to Pro-Ile inhibition” and the “attenuation” value [1] is given as “failed to attenuate”.
With “[^125I]-Ang-(1-7): iodinated Ang-(1-7), substrate; chloramine T method” the “conversion in BMX versus control CSF, in words” value [6] was “higher activity than the control” and the site of hydrolysis [7] was “Tyr^4-Ile^5 bond”.
